{
  "source": "patent US8791107B2",
  "about": "“N-substituted oxazinopteridines and oxazinopteridinones” (Takeda Pharmaceutical Company Limited, priority 2011, dated 2014)",
  "target": "T1, PI3Kδ (Homo sapiens, UniProt O00329)",
  "T1 construct": "The protein is full length and co-expressed with untagged PIK3R1; GST; purchased Invitrogen PV5274",
  "T1 sequence (O00329 whole entry)": "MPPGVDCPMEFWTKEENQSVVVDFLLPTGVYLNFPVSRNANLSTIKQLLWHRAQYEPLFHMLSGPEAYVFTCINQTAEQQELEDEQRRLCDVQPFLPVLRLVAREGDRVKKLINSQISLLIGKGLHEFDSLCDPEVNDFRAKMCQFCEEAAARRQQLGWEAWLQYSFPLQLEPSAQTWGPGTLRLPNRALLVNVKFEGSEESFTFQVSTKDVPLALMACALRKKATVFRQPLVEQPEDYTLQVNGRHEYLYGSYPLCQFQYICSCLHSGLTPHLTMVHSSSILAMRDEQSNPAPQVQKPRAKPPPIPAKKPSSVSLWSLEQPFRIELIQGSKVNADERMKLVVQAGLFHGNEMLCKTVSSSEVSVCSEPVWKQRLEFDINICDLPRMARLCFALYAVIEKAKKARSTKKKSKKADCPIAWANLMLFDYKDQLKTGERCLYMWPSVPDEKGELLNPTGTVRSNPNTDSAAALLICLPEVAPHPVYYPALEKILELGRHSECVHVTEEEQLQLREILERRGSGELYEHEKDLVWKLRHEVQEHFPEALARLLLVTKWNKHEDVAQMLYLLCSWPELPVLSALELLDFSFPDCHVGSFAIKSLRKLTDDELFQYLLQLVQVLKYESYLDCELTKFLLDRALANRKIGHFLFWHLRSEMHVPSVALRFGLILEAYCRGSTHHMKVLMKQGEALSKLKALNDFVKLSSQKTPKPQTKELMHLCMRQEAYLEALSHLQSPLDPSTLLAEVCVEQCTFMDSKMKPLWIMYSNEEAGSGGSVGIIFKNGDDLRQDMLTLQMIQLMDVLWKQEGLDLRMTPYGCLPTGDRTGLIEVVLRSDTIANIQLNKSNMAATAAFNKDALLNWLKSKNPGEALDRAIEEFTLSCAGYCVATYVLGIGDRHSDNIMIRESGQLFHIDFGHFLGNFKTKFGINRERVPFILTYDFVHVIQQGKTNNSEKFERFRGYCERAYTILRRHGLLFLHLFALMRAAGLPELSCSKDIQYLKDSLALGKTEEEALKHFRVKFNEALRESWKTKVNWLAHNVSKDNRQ",
  "T1 sequence (P27986 whole entry partner)": "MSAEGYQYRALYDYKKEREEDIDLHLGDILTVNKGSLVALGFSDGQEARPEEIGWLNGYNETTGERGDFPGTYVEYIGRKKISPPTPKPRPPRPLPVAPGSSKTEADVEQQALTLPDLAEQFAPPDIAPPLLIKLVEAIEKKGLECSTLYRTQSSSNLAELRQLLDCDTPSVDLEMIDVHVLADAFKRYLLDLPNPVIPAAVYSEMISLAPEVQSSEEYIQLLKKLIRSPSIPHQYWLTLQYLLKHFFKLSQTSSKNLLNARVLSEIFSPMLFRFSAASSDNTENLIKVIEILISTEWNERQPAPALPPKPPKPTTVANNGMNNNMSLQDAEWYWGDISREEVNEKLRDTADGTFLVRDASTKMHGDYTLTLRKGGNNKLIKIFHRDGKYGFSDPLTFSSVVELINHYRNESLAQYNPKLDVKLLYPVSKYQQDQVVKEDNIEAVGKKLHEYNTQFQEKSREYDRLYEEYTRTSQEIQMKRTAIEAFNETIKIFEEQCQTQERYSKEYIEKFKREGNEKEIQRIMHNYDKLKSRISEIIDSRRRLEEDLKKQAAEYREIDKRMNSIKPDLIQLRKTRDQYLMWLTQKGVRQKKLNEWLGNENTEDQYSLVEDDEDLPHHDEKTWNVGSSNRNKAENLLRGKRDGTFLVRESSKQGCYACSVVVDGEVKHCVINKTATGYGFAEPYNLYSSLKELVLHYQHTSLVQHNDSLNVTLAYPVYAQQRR",
  "experiment": "PI3Kδ inhibition, modified PIK3CD Adapta TR-FRET assay",
  "assay_type": "biochemical",
  "settings": "recombinant GST-tagged full length PIK3CD co-expressed with PIK3R1 (p85α), 2 μM ATP, 50 μM PIP2; for IC50: read-out: PI3Kδ Inhibition (pIC50) (converted)",
  "in_short": "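Full-length GST-PIK3CD co-expressed with p85α was run in 50 mM HEPES pH 7.5, 3 mM MgCl2, 1 mM EGTA, 100 mM NaCl, 0.03% CHAPS, 2 mM DTT, 1% DMSO, with 12-point compound titrations. Reactions at room temperature were started with solution containing 2 μM ATP and 50 μM PIP2. ADP was detected by Adapta TR-FRET (620 nm-ratioed).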",
  "data": [
    {"smiles": "COc1cc(-c2ncc3c(n2)N2CCOCC2C(=O)N3Cc2ccc(S(C)(=O)=O)cc2)ccn1", "note": "(centres unmarked) [Example 140, 2-(2-methoxypyridin-4-yl)-5-(4-(methylsulfonyl)benzyl)-6a,7,9,10-tetrahydro-[1,4]oxazino[3,4-h]pteridin-6(5H)-one]", "values": [
      {"measurement": "IC50", "value": 631, "unit": "nM"}
    ]},
    {"smiles": "CS(=O)(=O)c1ccc(CN2C(=O)C3COCCN3c3nc(-c4cc(N)ccn4)ncc32)cc1", "note": "(centres unmarked) [Example 141, 2-(4-aminopyridin-2-yl)-5-(4-(methylsulfonyl)benzyl)-6a,7,9,10-tetrahydro-[1,4]oxazino[3,4-h]pteridin-6(5H)-one]", "values": [
      {"measurement": "IC50", "value": "> 10000", "unit": "nM"}
    ]},
    {"smiles": "CS(=O)(=O)c1ccc(CN2C(=O)C3COCCN3c3nc(-c4ccc(F)c5[nH]ccc45)ncc32)cc1", "note": "(centres unmarked) [Example 142, 2-(7-fluoro-1H-indol-4-yl)-5-(4-(methylsulfonyl)benzyl)-6a,7,9,10-tetrahydro-[1,4]oxazino[3,4-h]pteridin-6(5H)-one]", "values": [
      {"measurement": "IC50", "value": 20, "unit": "nM"}
    ]},
    {"smiles": "Cc1c[nH]c2c(F)ccc(-c3ncc4c(n3)N3CCOCC3C(=O)N4Cc3ccc(S(C)(=O)=O)cc3)c12", "note": "(centres unmarked) [Example 143, 2-(7-fluoro-3-methyl-1H-indol-4-yl)-5-(4-(methylsulfonyl)benzyl)-6a,7,9,10-tetrahydro-[1,4]oxazino[3,4-h]pteridin-6(5H)-one]", "values": [
      {"measurement": "IC50", "value": 2000, "unit": "nM"}
    ]},
    {"smiles": "CS(=O)(=O)c1ccc(CN2C(=O)C3COCCN3c3nc(-c4cncc5[nH]ccc45)ncc32)cc1", "note": "(centres unmarked) [Example 144, 5-(4-(methylsulfonyl)benzyl)-2-(1H-pyrrolo[2,3-c]pyridin-4-yl)-6a,7,9,10-tetrahydro-[1,4]oxazino[3,4-h]pteridin-6(5H)-one]", "values": [
      {"measurement": "IC50", "value": 2.51, "unit": "nM"}
    ]},
    {"smiles": "O=C1C2COCCN2c2nc(-c3cccc4[nH]ccc34)ncc2N1Cc1ccccc1", "note": "(centres unmarked) [Example 145, 5-benzyl-2-(1H-indol-4-yl)-6a,7,9,10-tetrahydro-[1,4]oxazino[3,4-h]pteridin-6(5H)-one]", "values": [
      {"measurement": "IC50", "value": 25.1, "unit": "nM"}
    ]},
    {"smiles": "O=C1C2COCCN2c2nc(-c3cccc4[nH]ccc34)ncc2N1C1CCc2ccc(Cl)cc21", "note": "(centres unmarked) [Example 146, 5-(6-chloro-2,3-dihydro-1H-inden-1-yl)-2-(1H-indol-4-yl)-6a,7,9,10-tetrahydro-[1,4]oxazino[3,4-h]pteridin-6(5H)-one]", "values": [
      {"measurement": "IC50", "value": 31.6, "unit": "nM"}
    ]},
    {"smiles": "CNC(=O)Nc1ccc(-c2ncc3c(n2)N2CCOCC2C(=O)N3C2CCc3ccc(Cl)cc32)cc1", "note": "(centres unmarked) [Example 147, 1-(4-(5-(6-chloro-2,3-dihydro-1H-inden-1-yl)-6-oxo-5,6,6a,7,9,10-hexahydro-[1,4]oxazino[3,4-h]pteridin-2-yl)phenyl)-3-methylurea]", "values": [
      {"measurement": "IC50", "value": 20, "unit": "nM"}
    ]},
    {"smiles": "CNC(=O)Nc1ccc(-c2ncc3c(n2)N2CCOCC2C(=O)N3C2CCc3ccc(OC)cc32)cc1", "note": "(centres unmarked) [Example 148, 1-(4-(5-(6-methoxy-2,3-dihydro-1H-inden-1-yl)-6-oxo-5,6,6a,7,9,10-hexahydro-[1,4]oxazino[3,4-h]pteridin-2-yl)phenyl)-3-methylurea]", "values": [
      {"measurement": "IC50", "value": 3.98, "unit": "nM"}
    ]},
    {"smiles": "O=C1Nc2cnc(-c3cccc4c3OCO4)nc2N2CCOCC12", "note": "(centres unmarked) [Example 151, 2-(benzo[d][1,3]dioxol-4-yl)-6a,7,9,10-tetrahydro-[1,4]oxazino[3,4-h]pteridin-6(5H)-one]", "values": [
      {"measurement": "IC50", "value": 5010, "unit": "nM"}
    ]},
    {"smiles": "O=C1Nc2cnc(-c3cccc4[nH]cnc34)nc2N2CCOCC12", "note": "(centres unmarked) [Example 152, 2-(1H-benzo[d]imidazol-4-yl)-6a,7,9,10-tetrahydro-[1,4]oxazino[3,4-h]pteridin-6(5H)-one]", "values": [
      {"measurement": "IC50", "value": 501, "unit": "nM"}
    ]},
    {"smiles": "Cc1ccc([C@H](C)N2C(=O)[C@H]3COCCN3c3nc(-c4cccc5[nH]ccc45)ncc32)cc1", "note": "[Example 154, (R)-2-(1H-indol-4-yl)-5-((5)-1-p-tolylethyl)-6a,7,9,10-tetrahydro-[1,4]oxazino[3,4-h]pteridin-6(5H)-one]", "values": [
      {"measurement": "PI3Kδ Inhibition (pIC50)", "value": 6.9}
    ]},
    {"smiles": "CS(=O)(=O)c1ccc(CN2C(=O)C3COCCN3c3nc(-c4ccnc5[nH]ccc45)ncc32)cc1", "note": "(centres unmarked) [Example 155, 5-(4-(methylsulfonyl)benzyl)-2-(1H-pyrrolo[2,3-b]pyridin-4-yl)-6a,7,9,10-tetrahydro-[1,4]oxazino[3,4-h]pteridin-6(5H)-one]", "values": [
      {"measurement": "IC50", "value": 25.1, "unit": "nM"}
    ]},
    {"smiles": "Cc1nccn1-c1ncc2c(n1)N1CCOCC1C(=O)N2Cc1ccc(S(C)(=O)=O)cc1", "note": "(centres unmarked) [Example 156, 2-(2-methyl-1H-imidazol-1-yl)-5-(4-(methylsulfonyl)benzyl)-6a,7,9,10-tetrahydro-[1,4]oxazino[3,4-h]pteridin-6(5H)-one]", "values": [
      {"measurement": "IC50", "value": 316, "unit": "nM"}
    ]},
    {"smiles": "Cc1nnc(CN2C(=O)C3COCCN3c3nc(-n4c(C(F)F)nc5ccccc54)ncc32)o1", "note": "(centres unmarked) [Example 157, 2-(2-(difluoromethyl)-1H-benzo[d]imidazol-1-yl)-5-((5-methyl-1,3,4-oxadiazol-2-yl)methyl)-6a,7,9,10-tetrahydro-[1,4]oxazino[3,4-h]pteridin-6(5H)-one]", "values": [
      {"measurement": "IC50", "value": 39.8, "unit": "nM"}
    ]},
    {"smiles": "CNC(=O)Nc1ccc(-c2ncc3c(n2)N2CCOCC2C(=O)N3C2CCOCC2)cc1", "note": "(centres unmarked) [Example 158, 1-methyl-3-(4-(6-oxo-5-(tetrahydro-2H-pyran-4-yl)-5,6,6a,7,9,10-hexahydro-[1,4]oxazino[3,4-h]pteridin-2-yl)phenyl)urea]", "values": [
      {"measurement": "IC50", "value": 7.94, "unit": "nM"}
    ]},
    {"smiles": "CNC(=O)Nc1ccc(-c2ncc3c(n2)N2CCOC[C@@H]2C(=O)N3C2CCOCC2)cc1", "note": "[Example 159, (R)-1-methyl-3-(4-(6-oxo-5-(tetrahydro-2H-pyran-4-yl)-5,6,6a,7,9,10-hexahydro-[1,4]oxazino[3,4-h]pteridin-2-yl)phenyl)urea]", "values": [
      {"measurement": "IC50", "value": 2.51, "unit": "nM"}
    ]},
    {"smiles": "c1cnc(CN2CC3COCCN3c3nc(-c4cccc5[nH]ccc45)ncc32)nc1", "note": "(centres unmarked) [Example 164, 2-(1H-indol-4-yl)-5-(pyrimidin-2-ylmethyl)-5,6,6a,7,9,10-hexahydro-[1,4]oxazino[3,4-h]pteridine]", "values": [
      {"measurement": "IC50", "value": 79.4, "unit": "nM"}
    ]},
    {"smiles": "COC(=O)c1ccc(C)cc1CN1C[C@@H]2COCCN2c2nc(-c3cccc4[nH]ccc34)ncc21", "note": "[Example 165, (R)-methyl 2-((2-(1H-indol-4-yl)-6a,7,9,10-tetrahydro-[1,4]oxazino[3,4-h]pteridin-5(6H)-yl)methyl)-4-methylbenzoate]", "values": [
      {"measurement": "IC50", "value": 794, "unit": "nM"}
    ]},
    {"smiles": "Cc1ccc(CO)c(CN2C[C@@H]3COCCN3c3nc(-c4cccc5[nH]ccc45)ncc32)c1", "note": "[Example 166, (R)-(2-((2-(1H-indol-4-yl)-6a,7,9,10-tetrahydro-[1,4]oxazino[3,4-h]pteridin-5(6H)-yl)methyl)-4-methylphenyl)methanol]", "values": [
      {"measurement": "IC50", "value": 63.1, "unit": "nM"}
    ]},
    {"smiles": "CCc1nnc(CN2C[C@@H]3COCCN3c3nc(-c4cncc5[nH]ccc45)ncc32)o1", "note": "[Example 167, (R)-5-((5-ethyl-1,3,4-oxadiazol-2-yl)methyl)-2-(1H-pyrrolo[2,3-c]pyridin-4-yl)-5,6,6a,7,9,10-hexahydro-[1,4]oxazino[3,4-h]pteridine]", "values": [
      {"measurement": "IC50", "value": 1000, "unit": "nM"}
    ]},
    {"smiles": "CCc1nnc(CN2C[C@@H]3COCCN3c3nc(-c4ccc(O)nc4)ncc32)o1", "note": "[Example 168, (R)-5-(5-((5-ethyl-1,3,4-oxadiazol-2-yl)methyl)-5,6,6a,7,9,10-hexahydro-[1,4]oxazino[3,4-h]pteridin-2-yl)pyridin-2-ol]", "values": [
      {"measurement": "IC50", "value": "> 10000", "unit": "nM"}
    ]},
    {"smiles": "CC(C)(O)CCN1C[C@@H]2COCCN2c2nc(-c3cccc4[nH]ccc34)ncc21", "note": "[Example 169, (R)-4-(2-(1H-indol-4-yl)-6a,7,9,10-tetrahydro-[1,4]oxazino[3,4-h]pteridin-5(6H)-yl)-2-methylbutan-2-ol]", "values": [
      {"measurement": "IC50", "value": 7.94, "unit": "nM"}
    ]},
    {"smiles": "CC(C)(O)CCN1C[C@@H]2COCCN2c2nc(-c3cncc4[nH]ccc34)ncc21", "note": "[Example 170, (R)-4-(2-(1H-pyrrolo[2,3-c]pyridin-4-yl)-6a,7,9,10-tetrahydro-[1,4]oxazino[3,4-h]pteridin-5(6H)-yl)-2-methylbutan-2-ol]", "values": [
      {"measurement": "IC50", "value": 6.31, "unit": "nM"}
    ]},
    {"smiles": "CC(C)(O)CCN1C[C@@H]2COCCN2c2nc(-c3cccc(CO)c3)ncc21", "note": "[Example 171, (R)-4-(2-(3-(hydroxymethyl)phenyl)-6a,7,9,10-tetrahydro-[1,4]oxazino[3,4-h]pteridin-5(6H)-yl)-2-methylbutan-2-ol]", "values": [
      {"measurement": "IC50", "value": 3.16, "unit": "nM"}
    ]},
    {"smiles": "CCc1nnc(CN2C[C@@H]3COCCN3c3nc(-c4cccc(CO)c4)ncc32)o1", "note": "[Example 172, (R)-(3-(5-((5-ethyl-1,3,4-oxadiazol-2-yl)methyl)-5,6,6a,7,9,10-hexahydro-[1,4]oxazino[3,4-h]pteridin-2-yl)phenyl)methanol]", "values": [
      {"measurement": "IC50", "value": 5.01, "unit": "nM"}
    ]},
    {"smiles": "OCCN1C[C@@H]2COCCN2c2nc(-c3cccc4[nH]ccc34)ncc21", "note": "[Example 173, (R)-2-(2-(1H-indol-4-yl)-6a,7,9,10-tetrahydro-[1,4]oxazino[3,4-h]pteridin-5(6H)-yl)ethanol]", "values": [
      {"measurement": "IC50", "value": 158, "unit": "nM"}
    ]},
    {"smiles": "O=C(CN1C[C@@H]2COCCN2c2nc(-c3cncc4[nH]ccc34)ncc21)NCC1CCOCC1", "note": "[Example 174, (R)-2-(2-(1H-pyrrolo[2,3-c]pyridin-4-yl)-6a,7,9,10-tetrahydro-[1,4]oxazino[3,4-h]pteridin-5(6H)-yl)-N-((tetrahydro-2H-pyran-4-yl)methyl)acetamide]", "values": [
      {"measurement": "IC50", "value": 7.94, "unit": "nM"}
    ]},
    {"smiles": "CC(C)Cc1nnc(C(C)N2C[C@@H]3COCCN3c3nc(-c4cccc5[nH]ccc45)ncc32)o1", "note": "(stereo partly drawn) [Example 175, (6aR)-2-(1H-indol-4-yl)-5-(1-(5-isobutyl-1,3,4-oxadiazol-2-yl)ethyl)-5,6,6a,7,9,10-hexahydro-[1,4]oxazino[3,4-h]pteridine]", "values": [
      {"measurement": "IC50", "value": 1.58, "unit": "nM"}
    ]},
    {"smiles": "CC(C)Cc1nnc(C(C)N2C[C@@H]3COCCN3c3nc(-c4cccc(CO)c4)ncc32)o1", "note": "(some centres unmarked) [Example 176]", "values": [
      {"measurement": "IC50", "value": 1.58, "unit": "nM"}
    ]},
    {"smiles": "CCc1nnc(C(C)N2C[C@@H]3COCCN3c3nc(-c4cccc(CO)c4)ncc32)o1", "note": "(stereo partly drawn) [Example 177, (3-((6aR)-5-(1-(5-ethyl-1,3,4-oxadiazol-2-yl)ethyl)-5,6,6a,7,9,10-hexahydro-[1,4]oxazino[3,4-h]pteridin-2-yl)phenyl)methanol]", "values": [
      {"measurement": "IC50", "value": 2, "unit": "nM"}
    ]},
    {"smiles": "CCc1nnc(C(C)N2C[C@@H]3COCCN3c3nc(-c4cccc5[nH]ccc45)ncc32)o1", "note": "(stereo partly drawn) [Example 178, (6aR)-5-(1-(5-ethyl-1,3,4-oxadiazol-2-yl)ethyl)-2-(1H-indol-4-yl)-5,6,6a,7,9,10-hexahydro-[1,4]oxazino[3,4-h]pteridine]", "values": [
      {"measurement": "IC50", "value": 1.58, "unit": "nM"}
    ]}
  ]
}
